Test results as given in patent publication US20040014217A1, “Methods of transfection” (priority 2000, published 2004).

Columns and labels:
[1] = tested on: Human airway epithelial (HAE) cells; experiment: Luciferase (pCILuc) transfection of HAE cells, Example 13; assay type: cell-based
Description: Transfection vector complexes were prepared as described in the Material and Methods section, see also Example 15. The complexes were prepared using 4 μg of the peptide, 0.75 μg of lipofectin and 1 μg of the reporter gene. All components and the vector complex were made up in OptiMEM (Life Technologies, Inc.). EGTA (Sigma) at a concentration of 100 mM in water was added to the transfection vector complex preparation at one hundredth of the volume of the vector complex, giving a final EGTA concentration of 1 mM.
The EGTA/vector complex mixture was added to the cultures, which were then harvested two days later. As controls, cultures were treated with OptiMEM medium alone and with the transfection vector complex without EGTA.
We obtained essentially the same results using the luciferase reporter gene instead of GFP. Transfections ere carried out using the transfection vector prepared as described above with the construct pCILuc, with and without EGTA, as described above. Luciferase assays were performed on cell-free extracts of harvested cells using a kit obtained from Promega using an Anthos Lucy 1 Luminometer. As with the GFP experiments, luciferase levels were enhanced approximately four-fold in confluent cells treated with EGTA compared with transfections performed without EGTA. […]

[2] = tested on: 1HAEo-cells; experiment: BrdU incorporation by flow cytometry, 1HAEo- cells; assay type: cell-based, human; details: EGTA 2 mM, aphidicolin 10 μg/ml where present
Description: A BrdU Labelling and Detection Kit (Roche, Basel, Switzerland) was used, which contains the BrdU labelling reagent and the monoclonal mouse anti-BrdU. […] Cells were washed with PBS and incubated with a second layer antibody, Texas Red labelled horse anti-mouse IgG (Vector Laboratories, Peterborough, UK), for 30 minutes at 37° C. and then analysed by flow cytometry at the wavelength of 575±20 nm as detailed above. In some experiments, aphidicolin, a cell-proliferation inhibitor blocking the cell cycle in S-phase, was added to the cells to observe the effects on transfection efficiency.

[3] = tested on: normal and CF epithelial cell lines; experiment: Transfection of sub-confluent and confluent airway epithelial cell lines (summary of description); assay type: cell-based, human
Source text: However, all the cell lines tested were transfected under conventional conditions for transfection, that is to say, the cells were sub-confluent. It has been reported that mitosis is required for efficient transformation using cationic liposomes and also when using peptide-based transformation systems (Wilke, 1996; Tseng 1999; Brunner 2000). Confluent cells and/or cells treated with inhibitors of DNA polymerase such as aphidicolin are non-mitotic and transfect with polycationic vectors with low efficiency. The major cell limiting step is considered to be delivery of the transfected nucleic acid into the nucleus. Transportation of the nucleic acid through the cytoplasm to the nucleus is slow and the pores in the nuclear envelope are too small to permit rapid entry of the transfected nucleic acid. It is generally accepted that sub-confluent cultures, in which the cells are dividing, should be used for transfection. We attempted transfection with the transfection complexes of WO98/54347 but using cell line cultures that were confluent i.e. effectively non-mitotic.
The present invention is based on the surprising observation that the use of EGTA with a transfection vector comprising DNA, an integrin-binding component, a polycationic nucleic acid-binding component, and a lipid component, enhances transfection efficiency of confluent cells, which are slowly dividing or non-dividing i.e. substantially non-mitotic cells, in vitro and in vivo.
In accordance with the present invention integrin-targeted transfection vector complexes comprising peptide 6 above, which is an α5β1-targeted peptide, linked to oligolysine comprising 16 lysines i.e. K16, (component I); lipofectin (component L); and a reporter gene (component D) were used with EGTA for transfection. Sub-confluent normal and CF epithelial cell lines were transfected with the green fluorescent report gene and transfection efficiencies of 40 to 50% were achieved. Cells were then cultured in confluent monolayers to model more closely airway structure. […]

[4] = tested on: 1HAEo-cells; experiment: Luminometric luciferase assay, EGTA effects, 1HAEo- cells; assay type: cell-based, human; details: 2 mM EGTA prior to transfection, 2 washes
Description: The confluent (A) and subconfluent (B) 1HAEo-cells were transfected with LID complexes after pre-treatment with EGTA (EGTA) or in the presence of EGTA (LID+EGTA).
To enhance the efficiency of transfection in confluent epithelial cells, several agents were tested including EGTA (Sigma, Poole, UK), trypsin/EDTA (Sigma, Poole, UK), water, and mouse anti human E-cadherin antibody (Serotec Ltd, Oxford, UK). It was carried out firstly by comparing the effects of pretreatment of the cells with EGTA, water and Trypsin/EDTA with EGTA formulated into LID vector without pretreatment. […]
Twenty-four hours after transfection with pCI-luciferase, is cells were washed with PBS, lysed by adding 100 μl of Reporter Lysis Buffer (Promega, Southampton, UK) and detached from the plate by manual scraping using micropipette tips. […] The activity of luciferase was assayed with a luciferase assay kit (Promega, Southampton, UK) on a Lucy-1 plate-reading luminometer (Anthos, Salzburg, Austria). The protein concentration of each sample was determined with Protein Assay Reagent (BioRad Laboratories, Hertfordshire, UK) by measuring absorbance at 595 nm and the specific activity of luciferase was expressed as relative light unit per milligram protein (RLU/mg protein).

Q: For `O=C(O)CN(CCOCCOCCN(CC(=O)O)CC(=O)O)CC(=O)O` [EGTA, ethylene glycol-bis(β-aminoethyl ether)-N,N,N′,N′-tetraacetic acid], which “enhancement of luciferase levels in confluent cells versus transfection without EGTA” value ([1]; pCILuc) is on record?
A: approximately four-fold

Q: What about the “transfection after pre-incubation of the cells with EGTA” value ([1]; pre-incubation before vector) of the same molecule?
A: no better than the results without EGTA

Q: And the “BrdU-positive cells, sub-confluent 1HAEo- cells” value [2]?
A: about 24%

Q: What about the “effect on transfection efficiency of sub-confluent cells” value [3] of the same molecule?
A: no effect

Q: What about the “increase of transfection efficiency of airway epithelial cells in vitro” value ([3]; green fluorescent protein and luciferase reporter genes) of the same molecule?
A: about four-fold

Q: And the “transfection efficiency, confluent cells co-treated with EGTA” value ([3]; green fluorescent reporter gene)?
A: 20 to 30%

Q: What about the “enhancement of transfection, EGTA pre-treatment protocol, confluent cells” value [4] of the same molecule?
A: no enhancement
